± gives the standard deviation of the averaged measurements.
What was measured:
Test in all cases: pIC50, kinobeads binding competition
Conditions in all cases: cell material: Jurkat lysate
CDK10 = CDK10 (UniProt Q15131)
UniProt P27448 = molecular target: UniProt P27448
INSR = INSR (UniProt P06213)
UniProt O15111 = molecular target: T1, UniProt O15111
T1 sequence (whole entry): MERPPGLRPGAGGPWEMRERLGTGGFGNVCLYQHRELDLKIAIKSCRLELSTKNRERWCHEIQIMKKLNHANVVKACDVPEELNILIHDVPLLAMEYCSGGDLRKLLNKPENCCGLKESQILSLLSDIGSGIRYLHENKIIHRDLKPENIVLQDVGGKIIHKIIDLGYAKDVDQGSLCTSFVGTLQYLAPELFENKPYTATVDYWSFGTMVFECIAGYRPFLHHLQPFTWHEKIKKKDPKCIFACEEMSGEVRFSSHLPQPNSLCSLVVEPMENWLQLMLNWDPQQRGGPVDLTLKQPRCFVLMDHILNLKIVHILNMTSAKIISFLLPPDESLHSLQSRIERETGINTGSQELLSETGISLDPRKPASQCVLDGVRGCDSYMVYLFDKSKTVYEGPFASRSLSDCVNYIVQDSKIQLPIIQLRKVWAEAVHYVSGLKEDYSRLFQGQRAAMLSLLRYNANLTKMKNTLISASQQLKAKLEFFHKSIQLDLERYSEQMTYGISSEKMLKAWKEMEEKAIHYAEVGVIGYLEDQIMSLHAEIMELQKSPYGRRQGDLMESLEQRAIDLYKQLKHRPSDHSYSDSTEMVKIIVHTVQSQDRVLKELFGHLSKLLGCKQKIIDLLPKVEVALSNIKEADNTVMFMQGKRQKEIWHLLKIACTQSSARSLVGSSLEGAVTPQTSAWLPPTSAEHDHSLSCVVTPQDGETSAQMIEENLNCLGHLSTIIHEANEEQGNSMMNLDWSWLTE

UniProt Q15208 = molecular target: UniProt Q15208
UniProt Q15208, sequence (Q15208 whole entry, looked up): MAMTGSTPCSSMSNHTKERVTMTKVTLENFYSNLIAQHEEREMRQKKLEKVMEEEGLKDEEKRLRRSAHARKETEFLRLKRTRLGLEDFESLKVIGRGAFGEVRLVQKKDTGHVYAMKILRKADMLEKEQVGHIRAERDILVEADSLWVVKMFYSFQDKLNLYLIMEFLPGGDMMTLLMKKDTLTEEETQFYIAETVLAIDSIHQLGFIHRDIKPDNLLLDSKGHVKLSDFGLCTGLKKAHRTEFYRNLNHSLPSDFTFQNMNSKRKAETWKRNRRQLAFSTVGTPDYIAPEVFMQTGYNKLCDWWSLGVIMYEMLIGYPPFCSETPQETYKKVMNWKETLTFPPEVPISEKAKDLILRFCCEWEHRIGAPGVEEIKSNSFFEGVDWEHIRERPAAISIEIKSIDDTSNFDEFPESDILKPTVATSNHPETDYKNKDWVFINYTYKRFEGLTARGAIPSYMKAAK

UniProt P80192 = molecular target: UniProt P80192
TAOK3 = TAOK3 (UniProt Q9H2K8)
UniProt O95747 = molecular target: UniProt O95747
UniProt O95747, sequence (O95747 whole entry, looked up): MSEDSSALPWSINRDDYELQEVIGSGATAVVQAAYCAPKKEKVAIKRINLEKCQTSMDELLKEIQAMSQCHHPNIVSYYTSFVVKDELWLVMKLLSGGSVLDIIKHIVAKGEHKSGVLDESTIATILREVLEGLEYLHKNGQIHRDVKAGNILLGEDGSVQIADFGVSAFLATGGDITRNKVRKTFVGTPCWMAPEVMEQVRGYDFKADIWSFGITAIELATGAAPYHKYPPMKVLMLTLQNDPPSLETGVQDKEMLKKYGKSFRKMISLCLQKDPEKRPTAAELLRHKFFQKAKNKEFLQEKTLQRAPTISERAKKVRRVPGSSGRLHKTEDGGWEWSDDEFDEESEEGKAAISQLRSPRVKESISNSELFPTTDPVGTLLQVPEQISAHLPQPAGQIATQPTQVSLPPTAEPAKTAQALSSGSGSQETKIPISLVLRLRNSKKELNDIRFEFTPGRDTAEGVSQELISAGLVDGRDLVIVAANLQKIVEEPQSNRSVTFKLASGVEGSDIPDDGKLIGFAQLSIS

PIM3 = PIM3 (UniProt Q86V86)
PRKACB = PRKACB (UniProt P22694)
MAP3K4 = MAP3K4 (UniProt Q9Y6R4)
PRKCH = PRKCH (UniProt P24723)
TGFBR2 = TGFBR2 (UniProt P37173)
TGFBR2, sequence (P37173 whole entry): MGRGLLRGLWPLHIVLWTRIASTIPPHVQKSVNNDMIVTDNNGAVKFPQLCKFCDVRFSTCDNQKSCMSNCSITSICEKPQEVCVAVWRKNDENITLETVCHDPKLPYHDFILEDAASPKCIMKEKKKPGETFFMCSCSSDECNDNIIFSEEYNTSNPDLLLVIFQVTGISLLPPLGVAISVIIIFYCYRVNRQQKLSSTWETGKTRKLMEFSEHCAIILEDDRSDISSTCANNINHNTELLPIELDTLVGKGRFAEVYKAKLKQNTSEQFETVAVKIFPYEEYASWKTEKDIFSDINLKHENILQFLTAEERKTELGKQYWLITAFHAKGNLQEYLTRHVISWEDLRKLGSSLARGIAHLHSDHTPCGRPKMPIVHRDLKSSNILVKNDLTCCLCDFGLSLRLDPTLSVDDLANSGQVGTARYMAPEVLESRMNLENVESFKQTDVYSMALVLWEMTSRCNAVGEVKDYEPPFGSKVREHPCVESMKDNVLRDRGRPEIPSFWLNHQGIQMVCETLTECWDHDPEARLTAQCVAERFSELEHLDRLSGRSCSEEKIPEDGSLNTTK

UniProt P19525 = molecular target: UniProt P19525
UniProt P19525, sequence (P19525 whole entry): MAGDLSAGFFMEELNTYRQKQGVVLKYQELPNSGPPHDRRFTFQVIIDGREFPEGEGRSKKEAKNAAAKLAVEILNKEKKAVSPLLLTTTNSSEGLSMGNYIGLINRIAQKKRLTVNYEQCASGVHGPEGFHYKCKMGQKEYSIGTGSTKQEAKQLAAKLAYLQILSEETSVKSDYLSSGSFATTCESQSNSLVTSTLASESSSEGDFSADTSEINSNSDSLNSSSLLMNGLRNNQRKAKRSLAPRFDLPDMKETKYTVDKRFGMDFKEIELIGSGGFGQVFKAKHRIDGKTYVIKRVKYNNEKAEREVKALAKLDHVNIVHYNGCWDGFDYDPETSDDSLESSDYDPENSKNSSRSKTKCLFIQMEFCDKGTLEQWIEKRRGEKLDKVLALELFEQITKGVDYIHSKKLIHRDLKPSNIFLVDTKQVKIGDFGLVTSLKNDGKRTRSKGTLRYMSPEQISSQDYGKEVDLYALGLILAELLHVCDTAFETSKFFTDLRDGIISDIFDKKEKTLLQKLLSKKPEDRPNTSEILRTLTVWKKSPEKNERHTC

WEE1 = WEE1 (UniProt P30291)
WEE1, sequence (P30291 whole entry, looked up): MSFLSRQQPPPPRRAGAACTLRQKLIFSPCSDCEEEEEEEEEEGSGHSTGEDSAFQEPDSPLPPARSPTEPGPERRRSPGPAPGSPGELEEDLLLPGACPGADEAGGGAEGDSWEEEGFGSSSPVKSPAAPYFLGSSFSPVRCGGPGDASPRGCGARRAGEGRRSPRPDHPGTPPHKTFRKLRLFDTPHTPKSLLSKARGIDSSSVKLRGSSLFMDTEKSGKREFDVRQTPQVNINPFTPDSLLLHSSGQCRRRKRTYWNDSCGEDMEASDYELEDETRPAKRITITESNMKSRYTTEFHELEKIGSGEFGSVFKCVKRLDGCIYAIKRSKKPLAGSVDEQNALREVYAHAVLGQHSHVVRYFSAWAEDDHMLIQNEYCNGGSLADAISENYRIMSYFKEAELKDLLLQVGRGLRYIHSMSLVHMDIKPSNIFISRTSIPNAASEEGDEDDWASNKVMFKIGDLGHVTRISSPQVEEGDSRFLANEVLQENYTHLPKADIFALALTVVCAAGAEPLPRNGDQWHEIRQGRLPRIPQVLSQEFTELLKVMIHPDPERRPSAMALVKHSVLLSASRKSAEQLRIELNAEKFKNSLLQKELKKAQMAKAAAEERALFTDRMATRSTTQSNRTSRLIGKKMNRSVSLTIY

KSR1 = molecular target: T2, KSR1 (UniProt Q8IVT5)
T2 sequence (whole entry): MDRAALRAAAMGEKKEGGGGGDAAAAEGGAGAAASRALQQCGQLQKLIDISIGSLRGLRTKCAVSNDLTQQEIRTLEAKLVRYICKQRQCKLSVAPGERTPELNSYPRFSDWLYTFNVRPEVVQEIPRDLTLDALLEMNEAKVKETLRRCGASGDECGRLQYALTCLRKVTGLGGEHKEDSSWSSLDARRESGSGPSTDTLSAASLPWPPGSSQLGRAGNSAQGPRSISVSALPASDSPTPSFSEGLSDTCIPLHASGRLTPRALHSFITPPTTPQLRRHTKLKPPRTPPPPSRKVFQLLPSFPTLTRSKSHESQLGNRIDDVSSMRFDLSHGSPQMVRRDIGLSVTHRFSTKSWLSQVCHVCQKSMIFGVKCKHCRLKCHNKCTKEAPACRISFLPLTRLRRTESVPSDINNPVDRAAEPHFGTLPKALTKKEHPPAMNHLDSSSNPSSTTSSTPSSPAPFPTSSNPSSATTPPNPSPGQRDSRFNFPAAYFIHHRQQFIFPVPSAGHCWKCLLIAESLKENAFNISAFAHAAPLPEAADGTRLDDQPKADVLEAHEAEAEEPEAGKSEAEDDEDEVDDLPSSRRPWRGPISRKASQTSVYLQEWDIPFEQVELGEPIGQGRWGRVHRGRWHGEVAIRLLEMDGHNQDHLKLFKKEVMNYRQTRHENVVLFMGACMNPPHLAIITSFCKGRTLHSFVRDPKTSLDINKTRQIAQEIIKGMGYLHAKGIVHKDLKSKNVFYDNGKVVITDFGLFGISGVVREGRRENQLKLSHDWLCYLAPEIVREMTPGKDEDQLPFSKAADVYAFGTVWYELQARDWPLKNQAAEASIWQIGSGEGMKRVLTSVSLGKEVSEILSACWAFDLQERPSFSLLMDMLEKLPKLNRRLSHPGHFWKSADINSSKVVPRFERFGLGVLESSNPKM

UniProt P45985 = molecular target: T3, UniProt P45985
T3 sequence (whole entry): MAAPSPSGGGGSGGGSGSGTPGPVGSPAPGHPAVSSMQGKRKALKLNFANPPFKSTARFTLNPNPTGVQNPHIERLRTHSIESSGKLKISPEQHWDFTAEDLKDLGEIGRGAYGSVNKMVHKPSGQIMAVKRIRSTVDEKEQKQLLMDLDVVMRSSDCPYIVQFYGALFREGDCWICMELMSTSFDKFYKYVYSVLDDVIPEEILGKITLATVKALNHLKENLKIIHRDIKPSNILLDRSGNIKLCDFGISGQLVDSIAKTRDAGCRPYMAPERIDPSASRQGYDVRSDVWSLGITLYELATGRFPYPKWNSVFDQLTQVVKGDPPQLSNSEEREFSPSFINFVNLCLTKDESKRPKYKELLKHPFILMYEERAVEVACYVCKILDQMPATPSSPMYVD

PRKCB = PRKCB (UniProt P05771)
AKT2 = AKT2 (UniProt P31751)
UniProt Q9Y2H1 = molecular target: UniProt Q9Y2H1
UniProt Q9Y2H1, sequence (Q9Y2H1 whole entry, looked up): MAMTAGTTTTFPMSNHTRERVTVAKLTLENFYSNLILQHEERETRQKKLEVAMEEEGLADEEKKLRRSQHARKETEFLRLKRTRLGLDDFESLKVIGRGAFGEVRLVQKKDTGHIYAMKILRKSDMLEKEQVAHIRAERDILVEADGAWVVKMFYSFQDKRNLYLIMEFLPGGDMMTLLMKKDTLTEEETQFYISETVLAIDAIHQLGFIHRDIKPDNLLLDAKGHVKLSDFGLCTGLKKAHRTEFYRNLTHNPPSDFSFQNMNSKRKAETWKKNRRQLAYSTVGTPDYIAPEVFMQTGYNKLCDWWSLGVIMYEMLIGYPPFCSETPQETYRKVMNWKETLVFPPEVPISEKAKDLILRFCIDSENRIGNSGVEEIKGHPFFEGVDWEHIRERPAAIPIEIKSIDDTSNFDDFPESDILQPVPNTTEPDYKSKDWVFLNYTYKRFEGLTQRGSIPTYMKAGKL

UniProt Q9BUB5 = molecular target: UniProt Q9BUB5

CDK10, sequence (Q15131 whole entry): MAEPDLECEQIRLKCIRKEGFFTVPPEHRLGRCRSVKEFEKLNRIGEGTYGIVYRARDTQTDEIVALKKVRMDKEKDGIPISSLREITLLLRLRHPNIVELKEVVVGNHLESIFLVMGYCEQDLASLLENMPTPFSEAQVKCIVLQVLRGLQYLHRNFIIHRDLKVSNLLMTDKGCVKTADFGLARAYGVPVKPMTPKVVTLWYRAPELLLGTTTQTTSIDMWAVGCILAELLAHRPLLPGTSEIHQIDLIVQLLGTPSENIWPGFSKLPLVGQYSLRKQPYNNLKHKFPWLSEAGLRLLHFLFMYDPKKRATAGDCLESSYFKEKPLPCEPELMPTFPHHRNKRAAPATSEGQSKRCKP
INSR, sequence (P06213 whole entry): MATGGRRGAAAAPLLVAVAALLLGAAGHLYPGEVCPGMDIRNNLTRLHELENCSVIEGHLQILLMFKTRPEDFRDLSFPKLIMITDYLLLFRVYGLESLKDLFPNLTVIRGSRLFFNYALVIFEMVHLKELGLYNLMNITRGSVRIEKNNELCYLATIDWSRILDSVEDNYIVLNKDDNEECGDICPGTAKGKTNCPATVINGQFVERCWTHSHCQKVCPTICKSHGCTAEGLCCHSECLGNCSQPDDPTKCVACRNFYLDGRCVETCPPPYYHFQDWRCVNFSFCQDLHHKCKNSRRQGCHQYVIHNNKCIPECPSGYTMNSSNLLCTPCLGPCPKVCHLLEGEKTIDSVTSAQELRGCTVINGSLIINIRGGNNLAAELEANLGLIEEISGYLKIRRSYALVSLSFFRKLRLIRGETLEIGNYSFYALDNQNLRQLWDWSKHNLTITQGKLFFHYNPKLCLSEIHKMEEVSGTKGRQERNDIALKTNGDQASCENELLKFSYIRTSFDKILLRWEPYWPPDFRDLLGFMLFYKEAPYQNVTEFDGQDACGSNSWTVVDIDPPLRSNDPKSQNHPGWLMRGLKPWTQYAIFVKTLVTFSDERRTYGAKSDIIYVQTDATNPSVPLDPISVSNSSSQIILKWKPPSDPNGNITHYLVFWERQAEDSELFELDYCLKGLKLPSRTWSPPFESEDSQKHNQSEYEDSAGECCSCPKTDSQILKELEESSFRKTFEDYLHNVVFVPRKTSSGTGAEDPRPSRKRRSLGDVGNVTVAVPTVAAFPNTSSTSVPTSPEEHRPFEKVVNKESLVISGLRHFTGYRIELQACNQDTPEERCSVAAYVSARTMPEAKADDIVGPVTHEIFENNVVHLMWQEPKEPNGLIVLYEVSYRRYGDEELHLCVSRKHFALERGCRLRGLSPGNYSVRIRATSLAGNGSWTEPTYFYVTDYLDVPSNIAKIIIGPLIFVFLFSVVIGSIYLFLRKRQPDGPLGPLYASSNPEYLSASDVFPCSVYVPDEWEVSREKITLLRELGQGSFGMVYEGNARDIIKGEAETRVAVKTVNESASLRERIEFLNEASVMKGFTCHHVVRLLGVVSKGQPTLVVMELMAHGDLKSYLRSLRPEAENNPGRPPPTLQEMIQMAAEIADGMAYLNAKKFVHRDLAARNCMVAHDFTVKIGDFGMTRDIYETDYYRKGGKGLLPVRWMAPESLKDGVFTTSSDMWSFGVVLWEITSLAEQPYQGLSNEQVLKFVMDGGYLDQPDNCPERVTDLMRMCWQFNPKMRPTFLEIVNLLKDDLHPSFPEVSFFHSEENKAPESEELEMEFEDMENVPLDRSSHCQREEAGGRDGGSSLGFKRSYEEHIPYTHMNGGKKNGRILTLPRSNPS

- pIC50 (CDK10): 7.86 ± 0.31
- pIC50 (UniProt P27448): < 4.52
- pIC50 (INSR): < 4.52
- pIC50 (UniProt O15111): < 4.52
- pIC50 (UniProt Q15208): < 4.52
- pIC50 (UniProt P80192): < 4.52
- pIC50 (TAOK3): 5.79 ± 0.13
- pIC50 (UniProt O95747): < 4.52
- pIC50 (PIM3): < 4.52
- pIC50 (PRKACB): < 4.52
- pIC50 (MAP3K4): < 4.52
- pIC50 (PRKCH): < 4.52
- pIC50 (TGFBR2): < 4.52
- pIC50 (UniProt P19525): < 4.52
- pIC50 (WEE1): < 4.52
- pIC50 (KSR1): < 4.52
- pIC50 (UniProt P45985): < 4.52
- pIC50 (PRKCB): < 4.52
- pIC50 (AKT2): < 4.52
- pIC50 (UniProt Q9Y2H1): < 4.52
- pIC50 (UniProt Q9BUB5): < 4.52
SMILES: CCc1cnn2c(NCc3ccc[n+]([O-])c3)cc(N3CCCC[C@H]3CCO)nc12 [dinaciclib]

From the supplement of paper PMC12076712
